Measurements reported in patent US8323911B2, “High throughput assay for discovering new inhibitors of the GIRK1/4 channel” (University of South Carolina, priority 2010, dated 2012).
Ends that are not written are not given here.

What was measured:
[1] = molecular target: T1, GIRK1/4 channel (Mus musculus, UniProt P48545+P63250); assay: GIRK1/4 channel FLIPR assay (DiBAC4(3) fluorescence, carbachol-stimulated HL-1 cells); format: cell-based; conditions: for IC50: 5 min pretreatment, read-out: IC50 for drug block of the carbachol signal; for inhibition of the carbachol signal during pretreatment: 1 μM; for block of the carbachol-sensitive fluorescence signal: at the concentrations tested
T1 construct: consistent with the expression of GIRK1/4 channels in the HL-1 cells; endogenous in cells; host or cells: HL-1 immortalized cardiac atrial cells
T1 sequence (P63250 1-501): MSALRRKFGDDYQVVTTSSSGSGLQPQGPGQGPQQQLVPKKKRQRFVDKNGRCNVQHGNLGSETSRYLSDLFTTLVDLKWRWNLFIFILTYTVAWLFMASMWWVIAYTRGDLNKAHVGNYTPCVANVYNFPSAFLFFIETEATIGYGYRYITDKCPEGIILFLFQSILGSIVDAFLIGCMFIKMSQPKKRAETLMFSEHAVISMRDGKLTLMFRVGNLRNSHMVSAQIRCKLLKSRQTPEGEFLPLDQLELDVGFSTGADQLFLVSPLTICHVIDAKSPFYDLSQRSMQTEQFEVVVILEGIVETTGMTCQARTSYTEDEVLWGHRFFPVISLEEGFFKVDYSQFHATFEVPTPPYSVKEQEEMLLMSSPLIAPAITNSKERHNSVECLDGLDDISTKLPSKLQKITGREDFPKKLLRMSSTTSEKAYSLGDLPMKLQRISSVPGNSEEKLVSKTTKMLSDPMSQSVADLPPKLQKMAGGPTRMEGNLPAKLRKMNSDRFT
T1 sequence (P48545 1-419): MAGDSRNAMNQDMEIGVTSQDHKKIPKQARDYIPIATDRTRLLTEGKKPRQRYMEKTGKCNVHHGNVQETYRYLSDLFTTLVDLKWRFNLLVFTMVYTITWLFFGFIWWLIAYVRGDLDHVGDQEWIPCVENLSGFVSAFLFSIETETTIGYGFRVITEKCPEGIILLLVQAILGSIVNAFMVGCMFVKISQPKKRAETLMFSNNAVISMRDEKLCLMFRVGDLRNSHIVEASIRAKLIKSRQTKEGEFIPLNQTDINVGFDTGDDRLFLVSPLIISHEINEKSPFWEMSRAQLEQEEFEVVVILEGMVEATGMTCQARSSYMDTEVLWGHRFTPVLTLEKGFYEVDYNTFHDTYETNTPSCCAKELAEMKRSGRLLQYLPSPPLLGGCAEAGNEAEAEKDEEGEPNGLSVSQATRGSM
Procedure: HL-1 cells were incubated for 1 h in Tyrode's solution containing 5 μM DiBAC4(3) (AnaSpec, Fremont, Calif.) and fluorescent signals recorded using a Synergy2 microplate reader (BioTek, Winosski, Vt.) at 28° C. Test compounds were dissolved in DMSO at a stock concentration of 10 mM, diluted to various concentrations, and applied to the cells for 5 min prior to the fluorescent measurements. DiBAC4(3) was present in all experimental solutions. DMSO, up to 1% in Tyrode's solution, had no adverse effects on the cell response. Carbachol or control solution (20 μL) was added to each well (total volume=220 μL) at time zero using the Synergy2 injector system. Data points were collected at 10-s intervals over a 300-s sampling period at excitation and emission wavelengths of 480 and 520 nm, respectively. Positive (carbachol or carbachol+1 mM BaCl2) and negative (water or DMSO) control experiments were performed to calculate Z′ factors. The Z′ factor is defined as Z′=1=−(3σP+3σN)/|μP−μN|, where μP and μN are the means of the positive control and negative control signals, and σp and σN are the standard deviations of the positive control and negative control signals, respectively. Plates used for Z′ factor determination contained 2 rows each of positive and negative controls. Dose-response curves for selected compounds were obtained and drug potencies determined by fitting the data with the following curve: Max/(1+([drug]/IC50)^k), where the IC50 is the concentration of the compound producing a 50% decrease in the maximal carbachol response (Max), and k is the slope factor. Interference of the test compounds with the DiBAC4(3) fluorescence was determined in the absence of cells by adding various concentrations of the compounds to Tyrode's solution containing the dye.

[2] = molecular target: T2, IK,Ach (GIRK1/4 channel) (Mus musculus, UniProt P48545+P63250); assay: Patch-clamp recording of whole-cell IK,Ach currents in HL-1 cells; format: cell-based
T2 construct: consistent with the expression of GIRK1/4 channels in the HL-1 cells; endogenous in cells; host or cells: HL-1 immortalized cardiac atrial cells
T2 sequence (P63250 1-501): T1 sequence (P63250 1-501)
T2 sequence (P48545 1-419): T1 sequence (P48545 1-419)
From the text: A patch-clamp method was used to record the whole-cell IK,Ach using L/M EPC-7 (Adams & List Associates, Great Neck, N.Y.) and Axopatch 200 (Axon Instruments, Sunnyvale, Calif.) amplifiers. The procedures for measuring cardiac K^+ channels have been described in Walsh K B, Zhang J: Neonatal rat cardiac fibroblasts express three types of voltage-gated K^+ channels: regulation of a transient outward current by protein kinase C, Am J Physiol Heart Circ Physiol 2008; 294:H1010-H1017, incorporated by reference herein. Pipettes were made from borosilicate glass capillaries (World Precision Instruments, Sarasota, Fla.) and had resistances of 1 to 2 Mohms when filled with internal solution. All experiments were conducted on isolated, noncoupled HL-1 cells at room temperature (22-24° C.). For the measurement of IK,Ach, cells were placed in a normal Tyrode's solution consisting of 132 mM NaCl, 5 mM KCl, 1 mM CaCl2, 1 mM MgCl2, 5 mM dextrose, and 5 mM HEPES (pH 7.4; with NaOH) (280 mOsm). INa was blocked with tetrodotoxin (10 μM) and the Na^+ channels inactivated by maintaining the myocytes at a holding potential of −40 mV. L-type Ca^2+ channels were blocked with 500 nM nisoldipine. The internal solution was made from 50 mM KCl, 60 mM K^+-glutamate, 2 mM MgCl2, 1 mM CaCl2, 11 mM EGTA, 3 mM adenosine triphosphate (ATP), and 10 mM HEPES (pH 7.3; with KOH) (280 mOsm).
Membrane currents were recorded with 12-bit analog/digital converters (Axon Instruments). Data were sampled at 5 KHz and filtered at 1 KHz with a low-pass Bessel filter (Frequency Devices, Ottawa, Ill.). Series resistance was compensated to give the fastest possible capacity transient without producing oscillations. With this procedure, more than 70% of the series resistance could be compensated. Following the measurement of the HL-1 cell background current, IK,Ach was activated by the addition 10 μM carbachol using a rapid perfusion system. IK,Ach was defined as the BaCl2-sensitive current (see FIGS. 1A-1C, illustrating expression of GIRK1/4 channels in HL-1 cells). IK,Ach blockers were added and inhibition determined immediately after carbachol-induced activation. This limited errors in quantifying drug block due to GIRK1/4 channel desensitization and rundown. Averaged current values presented are means±SE.

[3] = test system: GIRK channels; conditions: HEK-293 cells; cited from earlier work
[4] = test system: IK,Ach; conditions: patch clamp analysis; read-out: IC50 measured in primary cultures of guinea pig atrial myocytes; cited from earlier work

Compound: [Ba+2].[Cl-].[Cl-] [BaCl2]
- block of the carbachol signal ([1]; 1 mM): blocked
- block of carbachol-activated inward rectifying current ([2]; 0.5 mM BaCl2): completely blocked

Compound: N/C(=N\C(=O)c1nc(Cl)c(N)nc1N)NCc1ccc(Cl)c(Cl)c1 [DCB, dichlorobenzamil]
- IC50 ([1]; HL-1 cells, DiBAC4(3)): 20 µM

Compound: CCN(c1nc(N)c(C(=O)N=C(N)N)nc1Cl)C(C)C [EIPA, 5-(N-ethyl-N-isopropyl)-amiloride]
- IC50 ([1]; HL-1 cells, DiBAC4(3)): 0.8 µM

Compound: NC(N)=NC(=O)c1nc(Cl)c(N2CCCCCC2)nc1N [HMA, 5-(N,N-hexamethylene)-amiloride]
- IC50 ([1]; HL-1 cells, DiBAC4(3)): 0.9 µM

Compound: CC(C)N(C)c1nc(N)c(C(=O)N=C(N)N)nc1Cl [MIBA, 5-(N-methyl-N-isopropyl)-amiloride]
- IC50 ([1]; HL-1 cells, DiBAC4(3)): 2 µM

Compound: COc1ccc(CC(=O)Nc2cc3c(cc2[N+](=O)[O-])OC(C)(C)[C@H](O)[C@H]3NC2CC2)cc1 [NIP-142]
- concentrations blocking GIRK channels [3]: nanomolar concentrations

Compound: CC(C)(C)NCC(O)COc1ccccc1C(=O)CCc1ccccc1 (centres unmarked) [TBPP, 1-{2-[3-(tert-butylamino)-2-hydroxypropoxy]phenyl}-3-phenyl-1-propanone]
- IC50 ([1]; HL-1 cells, DiBAC4(3)): 2 µM

Compound: N=C(N)NC(=O)c1nc(Cl)c(N)nc1N [amiloride]
- block of the carbachol-sensitive signal ([1]; concentrations up to 100 μM): only a partial block

Compound: CN1[C@@H]2CC[C@H]1C[C@@H](OC(=O)C(CO)c1ccccc1)C2 (some centres unmarked) [atropine]
- inhibition of the carbachol signal during pretreatment [1]: inhibited

Compound: NC(=NCc1ccccc1)NC(=O)c1nc(Cl)c(N)nc1N [benzamil]
- IC50 ([1]; HL-1 cells, DiBAC4(3)): 13 µM

Compound: C[N+](C)(C)CCOC(N)=O [carbachol]
- peak carbachol-induced fluorescent signal (F/FO) ([1]; 10 μM carbachol, mean±SD, 4 plates): 0.956±0.008
- EC50 ([1]; HL-1 cells, DiBAC4(3), read-out: EC50 for the carbachol-sensitive fluorescent signal (activation of GIRK1/4 channel)): 0.11 µM
- carbachol-mediated decrease in the fluorescent signal ([1]; [K]o increased to 20 mM): completely eliminated
- fold increase in the carbachol-sensitive signal ([1]; extracellular K+ reduced from 5 mM to 1 mM, 3 plates): 2.0±0.1 fold

Compound: O=C(NCC1CCCCN1)c1cc(OCC(F)(F)F)ccc1OCC(F)(F)F (centres unmarked) [flecainide]
- IC50 ([1]; HL-1 cells, DiBAC4(3)): 56 µM
- IC50 [4]: 20 µM
- block of IK,Ach current ([2]; 100 μM): strongly blocked

Compound: COc1ccc(Cl)cc1C(=O)NCCc1ccc(S(=O)(=O)NC(=O)NC2CCCCC2)cc1 [glybenclamide]
- block of the carbachol-sensitive fluorescence signal [1]: no block

Compound: CCCCCCCN(CC)CCCC(O)c1ccc(NS(C)(=O)=O)cc1 (centres unmarked) [ibutilide]
- IC50 ([1]; HL-1 cells, DiBAC4(3)): 16 µM

Compound: NC(=Nc1ccccc1)NC(=O)c1nc(Cl)c(N)nc1N [phenamil]
- IC50 ([1]; HL-1 cells, DiBAC4(3)): 13 µM

Compound: CCN(CC)CCNC(=O)c1ccc(N)cc1 [procainamide]
- block of the carbachol-sensitive fluorescence signal [1]: no block

Compound: CCCNCC(O)COc1ccccc1C(=O)CCc1ccccc1 (centres unmarked) [propafenone]
- IC50 ([1]; HL-1 cells, DiBAC4(3)): 3 µM
- IC50 ([2]; patch clamp, measured at −100 mV, 10 μM carbachol, read-out: IC50 for block of IK,Ach current): 2 µM

Compound: C=C[C@H]1C[N@@]2CC[C@H]1C[C@@H]2[C@@H](O)c1ccnc2ccc(OC)cc12 [quinidine]
- IC50 ([1]; HL-1 cells, DiBAC4(3)): 24 µM

Compound: CN1[C@@H]2C[C@@H](OC(=O)[C@H](CO)c3ccccc3)C[C@H]1[C@@H]1O[C@@H]12 [scopolamine]
- inhibition of the carbachol signal during pretreatment [1]: inhibited

Compound: CC(C)NCC(O)c1ccc(NS(C)(=O)=O)cc1 (centres unmarked) [sotalol]
- block of the carbachol-sensitive fluorescence signal [1]: no block

Compound: [5-(2-methyl-5-fluorophenyl)furan-2-ylcarbonyl]guanidine [KR-32568]
- change in the carbachol-sensitive fluorescence ([1]; drug concentrations up to 1 μM): no significant change

Compound: tertiapin (ALCNCNRIIIPHMCWKKCGKK; ends and bridges not checked; cysteine pairing not given here; UniProt P56587 1-21, looked up) [Kir toxin]
- block of IK,Ach current ([2]; 100 nM): strongly blocked
